The record followed here is US10188634B2, “3-(3H-imidazo[4,5-C]pyridin-2-yl)-1 H-pyrazolo[4,3-B]pyridines and therapeutic uses thereof” (Samumed, LLC, priority 2015, dated 2019).

Common to all, as to assay type: cell-based
The test system of one experiment is SW480 colon cancer cells. Description: Cell viability assay (CellTiter-Blue) in SW480 colon cancer cells. Conditions: Homo sapiens, 96 h; for inhibition at 10 µM: four days, CellTiter-Blue, read-out: percent inhibition at 10 μM (given for EC50 of >10 μM); for EC50: four days incubation, CellTiter-Blue cell viability. The gist of the method:
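Four-day exposure of SW480 cells (~2×10^3/well) to compound from 10 μM down to 0.004 μM in 1:3 steps, in duplicate. Resorufin fluorescence from CellTiter-Blue after ~3 h served as the viability read-out. EC50 values came from nonlinear curve fits, with % inhibition at 10 μM given where EC50 >10 μM.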

Experiment [1] deals with LL29 cells (primary human fibroblasts derived from IPF patients) treated with TGF-β1, α-smooth muscle actin. Description: Inhibition of the fibrotic process: αSMA staining in TGF-β1 treated primary human fibroblasts from IPF patients (LL29 cells). Conditions: Fibroblast, 96 h; for EC50: LL29 cells treated with TGF-β1 (20 ng/mL), 4 days; for inhibition at 10 µM: LL29 cells treated with TGF-β1, 4 days, read-out: percent inhibition in brackets (given for EC50 >10 μM).

The next experiment has as its system IL-6 in THP-1 cells. Nature of the experiment: Inhibition of IL-6 in LPS-stimulated THP-1 human monocyte cells (HTRF). Conditions: IL-6 HTRF; for EC50: 500 ng/mL LPS, 22 hours; for inhibition at 10 µM: LPS, read-out: percent inhibition in brackets (given for EC50 >10 μM). The method, boiled down:
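IL-6 was quantified by HTRF ratio after LPS (500 ng/mL, 22 h) stimulation of THP-1 monocytes pretreated 2 h with compound, 10-point 1:3 dilutions from 10 μM, 0.1% DMSO. Cells were held in 1% FBS for 24 h beforehand. Values normalised to DMSO; four-parameter EC50, or % inhibition at 10 μM above that.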

On to `COc1cccc(-c2cncc3[nH]c(-c4n[nH]c5ccc(-c6cncc(NC(=O)C7CCCCC7)c6)nc45)nc23)c1` [Compound 967, N-(5-(3-(7-(3-Methoxylphenyl)-3H-imidazo[4,5-c]pyridin-2-yl)-1H-pyrazolo[4,3-b]pyridin-5-yl)pyridin-3-yl)cyclohexanecarboxamide], for which the inhibition at 10 µM with SW480 colon cancer cells came out at 10.8%; in experiment [1] it was 0%; with IL-6 in THP-1 cells it was 33.9%. The EC50 (in the experiment with SW480 colon cancer cells; in experiment [1]; in the experiment with IL-6 in THP-1 cells) was more than 10 µM throughout.
Regarding `O=C(Nc1cncc(-c2ccc3[nH]nc(-c4nc5c(-c6ccc(F)cc6)cncc5[nH]4)c3n2)c1)C1CCC1` [Compound 49, N-(5-(3-(7-(4-Fluorophenyl)-3H-imidazo[4,5-c]pyridin-2-yl)-1H-pyrazolo[4,3-b]pyridin-5-yl)pyridin-3-yl)cyclobutanecarboxamide], the EC50 in the experiment on SW480 colon cancer cells was 8.68 µM; in experiment [1], 3.23 µM; with IL-6 in THP-1 cells it was more than 10 µM. Moreover, in the experiment with IL-6 in THP-1 cells, the inhibition at 10 µM was 37.7%.
With `Fc1cccc(-c2cncc3[nH]c(-c4n[nH]c5ccc(C6CCNCC6)nc45)nc23)c1` [Compound 477, 3-(7-(3-Fluorophenyl)-3H-imidazo[4,5-c]pyridin-2-yl)-5-(piperidin-4-yl)-1H-pyrazolo[4,3-b]pyridine], the inhibition at 10 µM with SW480 colon cancer cells was 1.8%; with IL-6 in THP-1 cells it was 13%. Besides, the values for the 50% effective concentration (EC50) (in the experiment on SW480 colon cancer cells; in experiment [1]; in the experiment on IL-6 in THP-1 cells) were more than 10 µM, 4.56 µM and more than 10 µM, respectively.
As for `c1cc(-c2ccc3[nH]nc(-c4nc5c(-c6ccncc6)cncc5[nH]4)c3n2)ccn1` [Compound 130, 5-(pyridin-4-yl)-3-(7-(pyridin-4-yl)-3H-imidazo[4,5-c]pyridin-2-yl)-1H-pyrazolo[4,3-b]pyridine], the inhibition at 10 µM in the experiment on SW480 colon cancer cells is 0%; in experiment [1] it was 11%; in the experiment on IL-6 in THP-1 cells, 29.3%. Also, the concentration giving a half-maximal response (EC50) (in the experiment with SW480 colon cancer cells; in experiment [1]; in the experiment on IL-6 in THP-1 cells) was more than 10 µM throughout.
`CCC(=O)Nc1cncc(-c2ccc3[nH]nc(-c4nc5c(-c6cccc(F)c6)cncc5[nH]4)c3n2)c1` [Compound 1, N-(5-(3-(7-(3-Fluorophenyl)-3H-imidazo[4,5-c]pyridin-2-yl)-1H-pyrazolo[4,3-b]pyridin-5-yl)pyridin-3-yl)propionamide]: the inhibition at 10 µM was found to be 0% with SW480 colon cancer cells, 0% in experiment [1] and 25.8% in the experiment on IL-6 in THP-1 cells. In addition, the EC50 (in the experiment with SW480 colon cancer cells; in experiment [1]; in the experiment with IL-6 in THP-1 cells) was more than 10 µM throughout.
In the case of `Fc1cccc(-c2cncc3[nH]c(-c4n[nH]c5ccc(-c6cnccn6)nc45)nc23)c1` [Compound 492, 3-(7-(3-Fluorophenyl)-3H-imidazo[4,5-c]pyridin-2-yl)-5-(pyrazin-2-yl)-1H-pyrazolo[4,3-b]pyridine], the inhibition at 10 µM came out at 7.5% with SW480 colon cancer cells, 0% in experiment [1] and 24.5% in the experiment with IL-6 in THP-1 cells. Also, the concentration for a half-maximal effect (EC50) (in the experiment with SW480 colon cancer cells; in experiment [1]; in the experiment with IL-6 in THP-1 cells) was more than 10 µM in each case.
Consider `Cc1cnc(-c2ccc3[nH]nc(-c4nc5c(-c6cccc(F)c6)cncc5[nH]4)c3n2)s1` [Compound 1082, 2-(3-(7-(3-Fluorophenyl)-3H-imidazo[4,5-c]pyridin-2-yl)-1H-pyrazolo[4,3-b]pyridin-5-yl)-5-methylthiazole], for which the inhibition at 10 µM in the experiment with SW480 colon cancer cells is 11.5%; in experiment [1], 0%; in the experiment with IL-6 in THP-1 cells, 14.3%. Also, the EC50 (in the experiment on SW480 colon cancer cells; in experiment [1]; with IL-6 in THP-1 cells) was more than 10 µM in each case.
For `CCNCc1cncc(-c2ccc3[nH]nc(-c4nc5c(-c6ccccn6)cncc5[nH]4)c3n2)c1` [Compound 146, N-((5-(3-(7-(Pyridin-2-yl)-3H-imidazo[4,5-c]pyridin-2-yl)-1H-pyrazolo[4,3-b]pyridin-5-yl)pyridin-3-yl)methyl)ethanamine], the figures for the inhibition at 10 µM in the experiment with SW480 colon cancer cells and in the experiment with IL-6 in THP-1 cells were 26.9% and 20.1%, respectively. Besides, the concentration giving a half-maximal response (EC50) with SW480 colon cancer cells was more than 10 µM; in experiment [1], 1.86 µM; in the experiment with IL-6 in THP-1 cells, more than 10 µM.
As to `CN1CCN(c2cncc3[nH]c(-c4n[nH]c5ccc(-c6cncc(NC(=O)C7CCCC7)c6)nc45)nc23)CC1` [Compound 246, N-(5-(3-(7-(4-Methylpiperazin-1-yl)-3H-imidazo[4,5-c]pyridin-2-yl)-1H-pyrazolo[4,3-b]pyridin-5-yl)pyridin-3-yl)cyclopentanecarboxamide], the inhibition at 10 µM with SW480 colon cancer cells is 1%; in experiment [1], 48.7%; with IL-6 in THP-1 cells it was 0%. Moreover, the EC50 (in the experiment with SW480 colon cancer cells; in experiment [1]; in the experiment on IL-6 in THP-1 cells) was more than 10 µM each time.
Regarding `c1ccc(COc2cncc(-c3ccc4[nH]nc(-c5nc6c(-c7ccncc7)cncc6[nH]5)c4n3)c2)cc1` [Compound 554, 5-(5-(Benzyloxy)pyridin-3-yl)-3-(7-(pyridin-4-yl)-3H-imidazo[4,5-c]pyridin-2-yl)-1H-pyrazolo[4,3-b]pyridine], the inhibition at 10 µM with SW480 colon cancer cells came out at 0%; in the experiment with IL-6 in THP-1 cells, 50.3%. Moreover, the EC50 with SW480 colon cancer cells is more than 10 µM; in experiment [1], 1.03 µM; in the experiment on IL-6 in THP-1 cells, more than 10 µM.
For `CCC(=O)Nc1cncc(-c2ccc3[nH]nc(-c4nc5c(N6CCCCC6)cncc5[nH]4)c3n2)c1` [Compound 169, N-(5-(3-(7-(Piperidin-1-yl)-3H-imidazo[4,5-c]pyridin-2-yl)-1H-pyrazolo[4,3-b]pyridin-5-yl)pyridin-3-yl)propionamide], the figures for the inhibition at 10 µM (in the experiment on SW480 colon cancer cells; in experiment [1]; in the experiment on IL-6 in THP-1 cells) were 2.2%, 3% and 25.6%, respectively. The EC50 (in the experiment on SW480 colon cancer cells; in experiment [1]; in the experiment on IL-6 in THP-1 cells) was more than 10 µM in each case.
For `COc1cccc(-c2cncc3[nH]c(-c4n[nH]c5ccc(-c6cncc(O)c6)nc45)nc23)c1` [Compound 985, 5-(3-(7-(3-Methoxylphenyl)-3H-imidazo[4,5-c]pyridin-2-yl)-1H-pyrazolo[4,3-b]pyridin-5-yl)pyridin-3-ol], the inhibition at 10 µM in the experiment on SW480 colon cancer cells is 7.1%. The EC50 with SW480 colon cancer cells was more than 10 µM; in experiment [1], 2.35 µM; with IL-6 in THP-1 cells, 1.34 µM.
For the molecule `O=C(Nc1cncc(-c2ccc3[nH]nc(-c4nc5c(-c6cccs6)cncc5[nH]4)c3n2)c1)C1CC1` [Compound 328, N-(5-(3-(7-(Thiophen-2-yl)-3H-imidazo[4,5-c]pyridin-2-yl)-1H-pyrazolo[4,3-b]pyridin-5-yl)pyridin-3-yl)cyclopropanecarboxamide], the inhibition at 10 µM in the experiment on SW480 colon cancer cells turned out to be 10%; in experiment [1], 0%; in the experiment on IL-6 in THP-1 cells it was 40.6%. The EC50 (in the experiment on SW480 colon cancer cells; in experiment [1]; in the experiment on IL-6 in THP-1 cells) was more than 10 µM throughout.
For the molecule `Cc1cn(-c2cncc3[nH]c(-c4n[nH]c5ccc(-c6cncc(NC(=O)C7CCC7)c6)nc45)nc23)cn1` [Compound 217, N-(5-(3-(7-(4-Methyl-1H-imidazol-1-yl)-3H-imidazo[4,5-c]pyridin-2-yl)-1H-pyrazolo[4,3-b]pyridin-5-yl)pyridin-3-yl)cyclobutanecarboxamide], the values for the inhibition at 10 µM (with SW480 colon cancer cells; in experiment [1]; in the experiment with IL-6 in THP-1 cells) were 0%, 18.8% and 36.5%, respectively. Further, the half-maximal effective concentration (EC50) (in the experiment on SW480 colon cancer cells; in experiment [1]; with IL-6 in THP-1 cells) was more than 10 µM throughout.
